The results in this text go back to ChEMBL document CHEMBL1201862, “PubChem BioAssay data set” (2004).

Common to all, as to experiment: growth of human tumour cells (NCI), 48 h
For test [1], the system named is UACC-257.
In test [2] the test system is SR.
Test [3] relates to NCI-H522.
Test [4] concerns NCI-H23.
Test [5] has as its system DU-145.
The subject of test [6] is A549.
The subject of test [7] is EKVX.
Test [8] has as its system U-251.
Test [9] deals with SN12C.
Test [10] concerns PC-3.
Test [11] has as its system UACC-62.
The test system of test [12] is CAKI-1.
Test [13] has as its system MDA-MB-231.
In test [14] the test system is MOLT-4.
The test system of test [15] is RPMI-8226.
Test [16] relates to HOP-92.
Test [17] deals with SW-620.
In test [18] the test system is COLO 205.
The test system of test [19] is OVCAR-3.

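Values below derive from 48-hour exposures of cells grown in 96-well plates, with endpoints linearly interpolated between the two concentrations bracketing the appropriate inhibition level. GI50: concentration for 50% inhibition of growth.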 Calls of active or inactive are those of the source. No stated cut-off is given here; in the data, active = GI50 up to about 1.1 µM and inactive = higher.

`O=C(O)CN1CCNCCN(CP(=O)(O)O)CC1`: the GI50 in test [1] was > 33.8 µM (inactive); in [2], > 20.2 µM (inactive); in [3], 2.58 µM (inactive); in test [4] it was > 100 µM (inactive); in [5], > 100 µM (inactive); in [6], 4.89 µM (inactive). The GI50 is 13.2 µM (inactive) in test [7]; > 24.3 µM (inactive) in test [8]; > 100 µM (inactive) in [9]; 9.73 µM (inactive) in [10]; 8.69 µM (inactive) in [11]; > 100 µM (inactive) in test [12]. Also, the GI50 in test [13] is > 70.1 µM (inactive); in [14], 4.34 µM (inactive); in test [15] it was 5.52 µM (inactive); in test [16], 22.3 µM (inactive); in [17], 4.49 µM (inactive); in test [18], 2.84 µM (inactive).

`CCOC(=O)N1CCNCCN(C(=O)OCC)CCNCC1`: the GI50 in test [1], in [2], in test [3], in test [4], in [5] and in test [6] was > 100 µM (inactive) in each case. For the same compound, the GI50 in test [7], in [8], in test [9], in test [10], in test [11] and in test [12] was > 100 µM (inactive) throughout. Besides, the GI50 in test [13], in test [14], in test [15], in [16], in [19] and in test [17] was > 100 µM (inactive) throughout. Besides, the GI50 in [18] is > 100 µM (inactive).

In the case of `Cc1cc(CN2CCCCC2)c(O)c(CN2CCCCC2)c1`, the GI50 in [1], in [2], in test [3], in test [4], in test [5] and in test [6] was > 100 µM (inactive) in each case. The GI50 in test [7], in test [8], in test [9], in test [10], in [11] and in [12] was > 100 µM (inactive) each time. In addition, the GI50 is > 100 µM (inactive) in test [13]; 22.8 µM (inactive) in test [15]; > 100 µM (inactive) in test [16]; > 100 µM (inactive) in [19]; > 100 µM (inactive) in [17]; > 100 µM (inactive) in test [18].

In the case of `O=C1OC(OC/C(Br)=C(/Br)COC2OC(=O)C(Cl)=C2Cl)C(Cl)=C1Cl` (configuration not stated), the GI50 in test [1] is 12.1 µM (inactive); in [2] it was 0.724 µM (active); in [3], 2.14 µM (inactive); in test [4], 4.21 µM (inactive); in test [5] it was 16.1 µM (inactive); in test [6], 22.1 µM (inactive). For the same compound, the GI50 in test [7] was 16.1 µM (inactive); in test [8] it was 7.6 µM (inactive); in [9], 9.1 µM (inactive); in [10], 15.8 µM (inactive); in [11] it was 14 µM (inactive); in [12], 3.15 µM (inactive). The GI50 was 7.69 µM (inactive) in test [13]; 2.26 µM (inactive) in test [14]; 1.68 µM (inactive) in [15]; 9.4 µM (inactive) in [16]; 4.88 µM (inactive) in test [19]; 2.69 µM (inactive) in [17]. Also, the GI50 in [18] is 4.29 µM (inactive).

As to `Cc1nn(-c2ccccc2)c2c1N=C(C(=O)O)CC(c1ccccc1)=N2`, the GI50 in test [1], in test [2], in test [3], in [4], in [5] and in test [6] was > 10 µM (inactive) in each case. Besides, the GI50 in [8], in [9], in test [10], in [11], in test [12] and in [13] was > 10 µM (inactive) each time. For the same compound, the GI50 in [14], in test [15], in test [16], in test [19], in test [17] and in test [18] was > 10 µM (inactive) each time.

As for `C/C(=N\O)c1cccc(Nc2c3ccccc3nc3occc23)c1`, the GI50 in test [1] is 7.03 µM (inactive); in test [2], 2.79 µM (inactive); in [3] it was 1.74 µM (inactive); in test [4], 4.99 µM (inactive); in test [5], 14.8 µM (inactive); in test [6], 4.93 µM (inactive). Besides, the GI50 in test [7] was 5.86 µM (inactive); in test [8] it was 13.6 µM (inactive); in test [9], 11.8 µM (inactive); in test [10], 17.7 µM (inactive); in test [11], 3.42 µM (inactive); in [12], 1.96 µM (inactive). Further, the GI50 is 4.51 µM (inactive) in test [13]; 4.25 µM (inactive) in test [14]; 3.07 µM (inactive) in [15]; 7.24 µM (inactive) in test [16]; 4.73 µM (inactive) in [19]; 5.09 µM (inactive) in test [18].

Regarding `CCOC(=O)N1CCN(c2nc(C)n(-c3ccccc3)c(=S)c2C#N)CC1`, the GI50 in test [1] is > 86.9 µM (inactive); in [2], > 100 µM (inactive); in test [3] it was > 34.9 µM (inactive); in test [4], > 54 µM (inactive); in [5], > 90.4 µM (inactive); in [6] it was 97.9 µM (inactive). The GI50 in [7] is > 82.2 µM (inactive); in test [8], 75.3 µM (inactive); in test [9], > 100 µM (inactive); in test [10] it was > 43.4 µM (inactive); in test [11], > 43.6 µM (inactive); in test [12], > 66.4 µM (inactive). Further, the GI50 is 23.4 µM (inactive) in [13]; > 40.1 µM (inactive) in test [14]; > 62.7 µM (inactive) in test [15]; > 65.9 µM (inactive) in test [16]; > 75 µM (inactive) in [19]; > 63.4 µM (inactive) in test [17]. The GI50 in test [18] was > 100 µM (inactive).

For `S=C(NC/C(Br)=C/Br)Nc1cccc2ccccc12`, the GI50 was 22.5 µM (inactive) in test [1]; 15.4 µM (inactive) in test [2]; 20 µM (inactive) in test [3]; 23.5 µM (inactive) in [4]; 30.9 µM (inactive) in test [5]; 34.2 µM (inactive) in [6]. Further, the GI50 in test [7] was 28.9 µM (inactive); in [8] it was 30.3 µM (inactive); in test [9], 24.4 µM (inactive); in [10], 23.1 µM (inactive); in test [11] it was 24.2 µM (inactive); in [12] it was 29.2 µM (inactive). Moreover, the GI50 in test [13] was 19.4 µM (inactive); in test [14], 17.8 µM (inactive); in test [15] it was 15.4 µM (inactive); in test [16], 20.2 µM (inactive); in test [19], 24 µM (inactive); in test [18] it was 18.5 µM (inactive).

Consider `C[C@]12CCC(N3CCCC3)CC1=CC[C@@H]1[C@@H]2CC[C@]2(C)C(O)[C@H](n3ccnc3)C[C@@H]12` (some centres not stated), for which the GI50 was 38.6 µM (inactive) in test [1]; 15.3 µM (inactive) in test [2]; 49.9 µM (inactive) in test [3]; 53.6 µM (inactive) in test [4]; > 100 µM (inactive) in [5]; 66.5 µM (inactive) in test [6]. For the same compound, the GI50 in test [7] is > 100 µM (inactive); in [8], 75.9 µM (inactive); in test [9] it was 46.5 µM (inactive); in test [10], 36.7 µM (inactive); in test [11], 32.1 µM (inactive); in test [12], > 100 µM (inactive). The GI50 in [13] was > 100 µM (inactive); in test [14] it was 14.2 µM (inactive); in test [15] it was 30.8 µM (inactive); in [16] it was > 100 µM (inactive); in test [19], 32.3 µM (inactive); in [17], 45.7 µM (inactive). The GI50 in test [18] is 30.3 µM (inactive).

As for `Cc1cc2nc(-c3c(F)cccc3F)n(Cc3c(F)cccc3F)c2cc1C`, the GI50 in test [1] is 16.1 µM (inactive); in [2], 11.3 µM (inactive); in test [3], 12.7 µM (inactive); in [4], 19.6 µM (inactive); in [5], 23.6 µM (inactive); in test [6] it was 12.1 µM (inactive). Moreover, the GI50 is 8.24 µM (inactive) in test [7]; 11.1 µM (inactive) in test [8]; 16.4 µM (inactive) in test [9]; 15.7 µM (inactive) in test [10]; 15.2 µM (inactive) in [12]; 14 µM (inactive) in test [13]. Further, the GI50 in test [14] was 13.1 µM (inactive); in [15] it was 5.28 µM (inactive); in test [16], 12.7 µM (inactive); in [19], 16.4 µM (inactive); in [17], 16.3 µM (inactive); in test [18] it was 15.2 µM (inactive).

Take `O=c1[nH]/c(=C/c2ccc(OCc3ccccc3)cn2)c(=O)[nH]/c1=C/c1cccnc1`: the GI50 in test [2] was 0.5 µM (active); in test [3] it was 0.182 µM (active); in test [4], 0.423 µM (active); in [5], 0.585 µM (active); in test [6], 0.804 µM (active); in [7], 1.65 µM (inactive). Further, the GI50 is 0.581 µM (active) in test [8]; 0.417 µM (active) in test [9]; 0.423 µM (active) in test [10]; 0.192 µM (active) in test [11]; 0.479 µM (active) in test [12]; 1.92 µM (inactive) in test [13]. Moreover, the GI50 in [14] was 0.361 µM (active); in [15], 0.628 µM (active); in test [16], > 35.2 µM (inactive); in [19] it was 0.23 µM (active); in [17], 0.42 µM (active); in [18], 2.07 µM (inactive).
